# The source made the active and inactive calls.
# Columns and labels:
# [1] = target: T1, Delta-type opioid receptor (Homo sapiens, UniProt P41143); test: HTS Image-Based Screen for Antagonists of the DOR Receptor. [Related pubchem assays (depositor defined):AID1777, AID1785, AID1786, AID2133]; assay type: functional
# [2] = target: T1, Delta-type opioid receptor; test: HTS Image-Based Screen for Agonists of the DOR Receptor. [Related pubchem assays (depositor defined):AID1777, AID1786, AID2133]; assay type: functional
# [3] = target: T2, Kappa-type opioid receptor (Homo sapiens, UniProt P41145); assay type: functional
# [4] = target: Mu-type opioid receptor (Homo sapiens, UniProt P35372); test: HTS Image-Based Screen for Agonists of the MOR Receptor. [Related pubchem assays (depositor defined):AID1777, AID1785, AID1786, AID2133]; assay type: functional;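 note: imaging of beta-arrestin GFP recruitment into spots after receptor activation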
# [5] = target: T2, Kappa-type opioid receptor; assay type: functional; remark: listed apart in the source
# [6] = target: Beta-galactosidase (Escherichia coli, UniProt Q8VNN2); assay type: functional
# [7] = tested on: H9c2; test: cells; assay type: functional, cell-based; details: Rattus norvegicus, H9c2, Myocardium;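 note: confirmatory concentration-response retest of ultra-high-throughput screening hits for modulation of myocardial damage; cell death induced by hydrogen peroxide oxidative stress; compound pretreatment for 60 min then peroxide exposure for 2 h; potency is for protecting the cells against peroxide damage rather than for killing them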
# [8] = target: SUMO-activating enzyme (Homo sapiens, UniProt Q9UBT2); test: SUMOylation inhibitor hit validation, confirmation, SUMOylation inhibitor project, biochemical, AlphaScreen (AID 2018); assay type: functional
# [9] = growth suppression of PTEN-null colon cells, dose response, cell-based, HCT116 PTEN knockout (AID 1047); assay type: functional;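 note: HCT116 colon tumor cells with PTEN knocked out; cells exposed to compound for 60 hours before readout; potency for loss of cell viability measured by luminescence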
# [10] = target: T3, CAAX prenyl protease 2 (Homo sapiens, UniProt Q9Y256); test: human Rce1 protease inhibitors, dose response, biochemical, yeast membranes, quenched-peptide fluorescence, cherry-pick (AID 588849)
# T3 sequence (Q9Y256 whole entry): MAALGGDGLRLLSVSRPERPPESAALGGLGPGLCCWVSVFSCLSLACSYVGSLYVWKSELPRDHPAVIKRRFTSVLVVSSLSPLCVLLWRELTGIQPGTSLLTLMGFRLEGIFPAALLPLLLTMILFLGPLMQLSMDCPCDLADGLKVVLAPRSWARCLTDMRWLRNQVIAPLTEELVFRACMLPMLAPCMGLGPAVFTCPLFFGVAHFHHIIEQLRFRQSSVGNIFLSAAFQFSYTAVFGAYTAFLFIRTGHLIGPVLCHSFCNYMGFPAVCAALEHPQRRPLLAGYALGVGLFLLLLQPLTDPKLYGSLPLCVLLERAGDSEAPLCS
# [11] = target: CAAX prenyl protease 1 (Saccharomyces cerevisiae S288c, UniProt P47154); test: Ste24 protease inhibitors, dose response, biochemical, S. cerevisiae, plate reader, cherry-pick (AID 488815)
# [12] = inhibitors of SNCA 5'UTR-driven reporter translation, confirmation, H4 neuroglioma cells, luminescence (AID 1988); assay type: functional, cell-based
# [13] = Luminescence Cell-Based Dose Response HTS to Identify Inhibitors of 5'UTR Stem-Loop Driven Prion Protein mRNA Translation in H4 Neuroglioblastoma Cells. [Related pubchem assays: 1827 (Project Summary), 1813 (Primary HTS)]; assay type: functional
# [14] = inhibitors of firefly luciferase expression or activity, dose response, H4 neuroglioma cells, luminescence (AID 1990); assay type: functional, cell-based
# [15] = target: Cytochrome P450 2C19 (Homo sapiens, UniProt P33261); test: Cytochrome panel assay with activity outcomes. Panel member name: p450-cyp2c19 Compounds with AC50 equal or less than 10 uM are considered active; assay type: functional; details: read-out: AC50
# [16] = target: Cytochrome P450 3A4 (Homo sapiens, UniProt P08684);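 note: CYP3A4 tested as one member of a cytochrome P450 panel screen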
# [17] = Vero E6 cell cytotoxicity, dose response, cytotoxicity control for non-replicating M. tuberculosis project, secondary assay (AID 492998); assay type: functional, VeroE6; details: Vero C1008
# [18] = THP-1 cell cytotoxicity, dose response, cytotoxicity control for non-replicating M. tuberculosis project (AID 489025); assay type: functional
# [19] = target: T4, Tyrosine-protein phosphatase non-receptor type 22 (Homo sapiens, UniProt Q9Y2R2); test: LYP (PTPN22) phosphatase inhibitor potency, SAR follow-up, biochemical, pCAP fluorogenic substrate, fluorescence, set 3 (AID 449727); assay type: functional
# T4 sequence (Q9Y2R2 whole entry): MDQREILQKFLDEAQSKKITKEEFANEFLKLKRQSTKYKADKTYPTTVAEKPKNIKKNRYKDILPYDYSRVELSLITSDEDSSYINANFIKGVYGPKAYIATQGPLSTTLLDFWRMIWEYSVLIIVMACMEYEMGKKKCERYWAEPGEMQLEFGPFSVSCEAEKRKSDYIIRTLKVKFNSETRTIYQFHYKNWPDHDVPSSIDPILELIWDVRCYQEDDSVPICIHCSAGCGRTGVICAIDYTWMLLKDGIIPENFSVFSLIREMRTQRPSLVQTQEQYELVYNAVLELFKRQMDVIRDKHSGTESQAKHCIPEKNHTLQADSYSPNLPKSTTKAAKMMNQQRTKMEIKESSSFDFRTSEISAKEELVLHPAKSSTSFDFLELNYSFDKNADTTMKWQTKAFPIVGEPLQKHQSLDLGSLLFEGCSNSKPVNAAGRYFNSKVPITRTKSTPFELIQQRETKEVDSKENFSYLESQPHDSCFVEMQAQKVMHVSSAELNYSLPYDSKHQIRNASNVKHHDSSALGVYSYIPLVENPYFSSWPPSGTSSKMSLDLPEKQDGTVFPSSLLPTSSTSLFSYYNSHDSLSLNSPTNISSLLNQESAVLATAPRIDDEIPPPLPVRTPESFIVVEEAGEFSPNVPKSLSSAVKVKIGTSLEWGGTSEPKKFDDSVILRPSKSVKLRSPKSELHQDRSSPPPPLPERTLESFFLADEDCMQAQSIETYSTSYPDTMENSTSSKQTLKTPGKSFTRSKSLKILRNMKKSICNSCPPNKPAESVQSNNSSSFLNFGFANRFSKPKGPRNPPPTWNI
# [20] = target: T4, Tyrosine-protein phosphatase non-receptor type 22; test: SAR LYP1 Fluorescent Assay using OMFP substrate for In Vitro dose response studies - Set 2. [Related pubchem assays (depositor defined):AID1779, AID1784, AID2140, AID449726, AID488869]; assay type: functional
# [21] = target: T4, Tyrosine-protein phosphatase non-receptor type 22; test: SAR LYP1 Fluorescent Assay using OMFP substrate for In Vitro dose response studies - Set 3. [Related pubchem assays (depositor defined):AID1779, AID1784, AID2140, AID2686]; assay type: functional
# [22] = target: T5, Tyrosine-protein phosphatase non-receptor type 7 (Homo sapiens, UniProt P35236); test: HePTP (PTPN7) phosphatase inhibitor potency, SAR follow-up, biochemical, set 2 (AID 449736); assay type: functional
# T5 sequence (P35236 whole entry): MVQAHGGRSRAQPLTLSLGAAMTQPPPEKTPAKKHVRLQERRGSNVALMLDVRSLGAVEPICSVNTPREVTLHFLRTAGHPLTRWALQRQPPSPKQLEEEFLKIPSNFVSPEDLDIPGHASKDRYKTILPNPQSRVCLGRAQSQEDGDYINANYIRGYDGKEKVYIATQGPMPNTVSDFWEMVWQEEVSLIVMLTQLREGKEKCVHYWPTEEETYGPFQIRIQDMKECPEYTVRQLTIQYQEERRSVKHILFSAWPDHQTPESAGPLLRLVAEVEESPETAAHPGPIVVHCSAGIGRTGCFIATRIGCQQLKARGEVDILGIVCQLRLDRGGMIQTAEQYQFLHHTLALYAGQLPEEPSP
# [23] = target: T4, Tyrosine-protein phosphatase non-receptor type 22; test: SAR LYP1 Fluorescent Assay using pCAP substrate for In Vitro dose response studies - Set 2. [Related pubchem assays (depositor defined):AID1779, AID1784, AID2135, AID449727]; assay type: functional
# [24] = HEp-2 cell cytotoxicity, dose response, cytotoxicity control for RSV inhibitor project, HTS (AID 2410); assay type: functional; details: human respiratory syncytial virus
# [25] = target: T6, Voltage-gated N-type calcium channel alpha-1B subunit/Amyloid beta A4 precursor protein-binding family A member 1 (Homo sapiens, UniProt Q00975+Q02410); assay type: protein assay
# [26] = target: T6, Voltage-gated N-type calcium channel alpha-1B subunit/Amyloid beta A4 precursor protein-binding family A member 1; assay type: protein assay; remark: listed apart in the source
# [27] = target: Trypsin (Sus scrofa, UniProt P00761); test: porcine trypsin inhibitors, dose response, selectivity assay for Rce1 protease inhibitor project, biochemical, quenched peptide fluorescence, cherry-pick (AID 488789)
# [28] = target: T7, CAAX prenyl protease 2 (Saccharomyces cerevisiae S288c, UniProt Q03530); assay type: biochemical
# T7 sequence (Q03530 whole entry): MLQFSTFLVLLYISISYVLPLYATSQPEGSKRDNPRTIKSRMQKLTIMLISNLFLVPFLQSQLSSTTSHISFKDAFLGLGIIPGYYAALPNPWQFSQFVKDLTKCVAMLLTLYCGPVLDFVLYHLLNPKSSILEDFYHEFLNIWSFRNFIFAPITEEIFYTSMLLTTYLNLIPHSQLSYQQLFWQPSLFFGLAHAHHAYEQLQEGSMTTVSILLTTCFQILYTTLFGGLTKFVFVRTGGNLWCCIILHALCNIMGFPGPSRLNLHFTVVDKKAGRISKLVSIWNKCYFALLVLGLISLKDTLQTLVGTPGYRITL
# [29] = target: Cytochrome P450 2D6 (Homo sapiens, UniProt P10635);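 note: CYP2D6 member of a cytochrome P450 panel assay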
# [30] = target: T8, RNA-binding protein pos-1 (Caenorhabditis elegans, UniProt G5EF15); test: inhibitors of POS-1/mex-3 RNA binding, dose response, biochemical, fluorescence polarization (AID 1964);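 note: purified POS-1 fused to maltose binding protein made in E. coli; potency of compounds blocking POS-1 binding to fluorescent RNA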
# T8 sequence (G5EF15 whole entry): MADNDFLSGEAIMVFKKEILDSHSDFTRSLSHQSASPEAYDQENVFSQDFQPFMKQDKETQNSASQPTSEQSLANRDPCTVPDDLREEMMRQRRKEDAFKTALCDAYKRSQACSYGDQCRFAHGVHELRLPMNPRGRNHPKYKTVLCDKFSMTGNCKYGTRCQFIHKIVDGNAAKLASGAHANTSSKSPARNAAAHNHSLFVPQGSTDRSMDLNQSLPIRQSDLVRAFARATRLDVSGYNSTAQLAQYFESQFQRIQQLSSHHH
# [31] = target: Keap1/Nrf2 (Homo sapiens, UniProt Q14145); test: Keap1-Nrf2 protein-protein interaction inhibitors, dose response, biochemical, fluorescence polarization, cherry-picked samples (AID 588683)
# [32] = target: T9, Zinc finger protein mex-5 (Caenorhabditis elegans, UniProt Q9XUB2); test: MEX-5/TCR-2 RNA interaction inhibitors, dose response, biochemical, C. elegans, fluorescence polarization (AID 1960)
# T9 sequence (Q9XUB2 whole entry): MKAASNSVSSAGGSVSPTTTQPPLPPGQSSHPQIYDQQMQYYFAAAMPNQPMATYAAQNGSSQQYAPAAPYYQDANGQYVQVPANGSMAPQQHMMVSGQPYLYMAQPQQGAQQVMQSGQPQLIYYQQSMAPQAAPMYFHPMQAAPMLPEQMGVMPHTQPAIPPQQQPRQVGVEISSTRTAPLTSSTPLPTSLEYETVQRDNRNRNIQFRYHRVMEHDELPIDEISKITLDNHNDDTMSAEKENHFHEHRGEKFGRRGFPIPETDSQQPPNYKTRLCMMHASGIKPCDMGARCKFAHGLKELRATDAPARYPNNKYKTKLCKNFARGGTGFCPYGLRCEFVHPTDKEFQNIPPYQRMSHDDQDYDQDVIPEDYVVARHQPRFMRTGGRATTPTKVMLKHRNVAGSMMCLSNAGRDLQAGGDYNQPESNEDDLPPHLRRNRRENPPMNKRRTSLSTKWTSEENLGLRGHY
# T2 sequence (P41145 whole entry): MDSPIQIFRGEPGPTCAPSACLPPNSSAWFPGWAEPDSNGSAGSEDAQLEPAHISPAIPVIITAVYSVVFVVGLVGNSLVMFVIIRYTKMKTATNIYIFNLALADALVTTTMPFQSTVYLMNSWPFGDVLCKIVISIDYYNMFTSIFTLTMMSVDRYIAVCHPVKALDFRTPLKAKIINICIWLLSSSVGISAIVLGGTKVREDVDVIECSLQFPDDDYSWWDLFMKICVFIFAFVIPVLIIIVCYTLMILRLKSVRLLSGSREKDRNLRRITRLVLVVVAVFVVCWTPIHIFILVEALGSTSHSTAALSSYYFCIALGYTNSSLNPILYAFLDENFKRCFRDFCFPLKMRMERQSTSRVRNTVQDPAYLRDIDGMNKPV
# T6 sequence (Q00975 whole entry): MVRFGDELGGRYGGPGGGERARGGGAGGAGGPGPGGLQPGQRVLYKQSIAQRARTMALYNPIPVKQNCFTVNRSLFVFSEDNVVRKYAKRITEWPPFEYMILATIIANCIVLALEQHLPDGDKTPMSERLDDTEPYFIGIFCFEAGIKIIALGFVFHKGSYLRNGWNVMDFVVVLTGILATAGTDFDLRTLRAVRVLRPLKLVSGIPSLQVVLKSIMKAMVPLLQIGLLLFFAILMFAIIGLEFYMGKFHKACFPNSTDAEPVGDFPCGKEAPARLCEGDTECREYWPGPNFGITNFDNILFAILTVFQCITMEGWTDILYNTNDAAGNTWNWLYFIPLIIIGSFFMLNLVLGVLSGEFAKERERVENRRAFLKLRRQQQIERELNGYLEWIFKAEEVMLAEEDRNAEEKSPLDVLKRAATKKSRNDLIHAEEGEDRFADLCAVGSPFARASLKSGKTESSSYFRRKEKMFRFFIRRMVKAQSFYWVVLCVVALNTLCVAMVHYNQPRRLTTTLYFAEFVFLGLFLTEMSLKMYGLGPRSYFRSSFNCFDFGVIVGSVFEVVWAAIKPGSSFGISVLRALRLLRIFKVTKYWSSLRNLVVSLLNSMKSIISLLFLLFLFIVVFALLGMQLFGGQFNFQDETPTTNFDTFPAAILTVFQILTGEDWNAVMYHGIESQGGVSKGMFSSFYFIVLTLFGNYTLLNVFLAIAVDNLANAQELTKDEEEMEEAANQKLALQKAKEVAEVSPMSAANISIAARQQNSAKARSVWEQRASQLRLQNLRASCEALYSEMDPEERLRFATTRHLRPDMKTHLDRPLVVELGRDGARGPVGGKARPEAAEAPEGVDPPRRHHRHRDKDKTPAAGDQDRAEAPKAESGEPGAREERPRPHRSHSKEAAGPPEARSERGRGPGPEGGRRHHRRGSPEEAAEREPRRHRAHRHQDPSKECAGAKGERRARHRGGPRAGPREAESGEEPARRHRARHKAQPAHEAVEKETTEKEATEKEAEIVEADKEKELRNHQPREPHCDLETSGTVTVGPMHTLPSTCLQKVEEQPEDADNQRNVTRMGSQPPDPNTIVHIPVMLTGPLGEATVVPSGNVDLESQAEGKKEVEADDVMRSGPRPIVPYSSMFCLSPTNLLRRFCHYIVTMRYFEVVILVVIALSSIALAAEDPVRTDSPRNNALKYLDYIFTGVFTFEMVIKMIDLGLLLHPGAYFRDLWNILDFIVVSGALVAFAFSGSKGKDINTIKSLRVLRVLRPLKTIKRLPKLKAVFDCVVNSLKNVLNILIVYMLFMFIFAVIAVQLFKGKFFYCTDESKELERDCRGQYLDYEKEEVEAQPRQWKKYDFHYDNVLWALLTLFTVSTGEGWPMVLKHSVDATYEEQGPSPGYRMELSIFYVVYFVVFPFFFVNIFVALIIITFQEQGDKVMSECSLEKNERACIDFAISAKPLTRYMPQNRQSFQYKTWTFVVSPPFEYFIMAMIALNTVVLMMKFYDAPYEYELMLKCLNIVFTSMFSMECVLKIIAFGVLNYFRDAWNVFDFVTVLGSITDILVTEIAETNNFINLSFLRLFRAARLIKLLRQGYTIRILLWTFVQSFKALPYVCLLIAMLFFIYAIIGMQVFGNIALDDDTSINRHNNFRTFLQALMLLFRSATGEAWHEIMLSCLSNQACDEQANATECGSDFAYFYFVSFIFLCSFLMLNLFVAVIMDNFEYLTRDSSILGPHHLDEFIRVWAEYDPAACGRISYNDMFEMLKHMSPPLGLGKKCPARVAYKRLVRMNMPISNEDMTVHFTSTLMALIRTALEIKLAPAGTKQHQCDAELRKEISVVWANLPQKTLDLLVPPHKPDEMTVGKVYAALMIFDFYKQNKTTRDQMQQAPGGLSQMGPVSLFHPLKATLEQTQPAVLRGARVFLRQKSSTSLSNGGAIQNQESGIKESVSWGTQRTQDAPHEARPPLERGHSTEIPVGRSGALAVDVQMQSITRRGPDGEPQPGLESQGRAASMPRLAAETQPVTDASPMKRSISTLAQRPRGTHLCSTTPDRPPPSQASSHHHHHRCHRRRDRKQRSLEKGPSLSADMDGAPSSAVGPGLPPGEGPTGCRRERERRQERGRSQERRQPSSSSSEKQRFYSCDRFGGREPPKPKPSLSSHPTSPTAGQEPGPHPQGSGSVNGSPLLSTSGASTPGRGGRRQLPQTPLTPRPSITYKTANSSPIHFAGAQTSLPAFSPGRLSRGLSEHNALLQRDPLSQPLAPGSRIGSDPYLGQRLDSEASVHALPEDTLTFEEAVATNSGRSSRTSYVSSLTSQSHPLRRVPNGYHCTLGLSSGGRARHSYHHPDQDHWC
# T6 sequence (Q02410 whole entry): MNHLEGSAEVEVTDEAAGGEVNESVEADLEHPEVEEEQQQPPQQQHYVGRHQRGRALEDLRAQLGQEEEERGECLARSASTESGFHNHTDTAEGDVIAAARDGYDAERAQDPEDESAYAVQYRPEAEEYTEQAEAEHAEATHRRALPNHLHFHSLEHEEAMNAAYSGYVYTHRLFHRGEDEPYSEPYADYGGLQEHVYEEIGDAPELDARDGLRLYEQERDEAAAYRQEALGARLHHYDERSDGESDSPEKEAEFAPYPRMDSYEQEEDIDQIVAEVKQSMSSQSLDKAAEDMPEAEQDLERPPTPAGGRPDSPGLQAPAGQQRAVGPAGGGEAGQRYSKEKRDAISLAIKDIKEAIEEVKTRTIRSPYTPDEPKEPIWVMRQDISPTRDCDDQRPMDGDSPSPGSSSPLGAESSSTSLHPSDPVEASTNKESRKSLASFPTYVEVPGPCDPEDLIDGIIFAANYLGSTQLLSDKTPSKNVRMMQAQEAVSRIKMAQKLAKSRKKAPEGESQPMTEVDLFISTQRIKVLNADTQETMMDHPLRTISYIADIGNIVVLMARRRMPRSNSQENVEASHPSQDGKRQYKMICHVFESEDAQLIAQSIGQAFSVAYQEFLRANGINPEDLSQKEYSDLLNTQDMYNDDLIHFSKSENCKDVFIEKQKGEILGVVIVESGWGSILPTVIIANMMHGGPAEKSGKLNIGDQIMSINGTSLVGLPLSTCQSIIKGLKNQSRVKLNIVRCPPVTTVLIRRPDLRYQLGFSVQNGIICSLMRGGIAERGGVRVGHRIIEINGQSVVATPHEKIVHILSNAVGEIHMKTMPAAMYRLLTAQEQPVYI
# T1 sequence (P41143 whole entry): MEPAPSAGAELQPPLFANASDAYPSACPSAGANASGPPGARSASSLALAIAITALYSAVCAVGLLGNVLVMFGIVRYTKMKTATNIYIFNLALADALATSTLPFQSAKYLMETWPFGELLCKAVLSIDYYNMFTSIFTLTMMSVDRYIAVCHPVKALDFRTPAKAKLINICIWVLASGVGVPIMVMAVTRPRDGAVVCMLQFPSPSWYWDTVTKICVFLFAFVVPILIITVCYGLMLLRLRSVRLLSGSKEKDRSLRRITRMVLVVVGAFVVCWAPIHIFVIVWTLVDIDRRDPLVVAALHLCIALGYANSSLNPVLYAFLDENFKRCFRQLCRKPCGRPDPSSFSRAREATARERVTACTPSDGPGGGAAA
# Chain of Cytochrome P450 2C19 (P33261 whole entry): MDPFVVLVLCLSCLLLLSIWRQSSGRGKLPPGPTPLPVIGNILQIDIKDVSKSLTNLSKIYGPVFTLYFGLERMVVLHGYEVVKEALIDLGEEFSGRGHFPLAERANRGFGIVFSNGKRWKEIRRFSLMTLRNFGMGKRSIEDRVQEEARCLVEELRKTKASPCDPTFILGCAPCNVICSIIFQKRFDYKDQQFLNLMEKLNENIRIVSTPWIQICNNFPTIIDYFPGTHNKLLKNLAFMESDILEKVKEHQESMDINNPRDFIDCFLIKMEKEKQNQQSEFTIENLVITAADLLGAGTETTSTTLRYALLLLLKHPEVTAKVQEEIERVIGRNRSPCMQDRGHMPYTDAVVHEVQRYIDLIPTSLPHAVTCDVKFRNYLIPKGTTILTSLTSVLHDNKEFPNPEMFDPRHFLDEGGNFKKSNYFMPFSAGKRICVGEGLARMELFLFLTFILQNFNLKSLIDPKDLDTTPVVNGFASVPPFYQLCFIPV
# Chain of Cytochrome P450 3A4 (P08684 whole entry): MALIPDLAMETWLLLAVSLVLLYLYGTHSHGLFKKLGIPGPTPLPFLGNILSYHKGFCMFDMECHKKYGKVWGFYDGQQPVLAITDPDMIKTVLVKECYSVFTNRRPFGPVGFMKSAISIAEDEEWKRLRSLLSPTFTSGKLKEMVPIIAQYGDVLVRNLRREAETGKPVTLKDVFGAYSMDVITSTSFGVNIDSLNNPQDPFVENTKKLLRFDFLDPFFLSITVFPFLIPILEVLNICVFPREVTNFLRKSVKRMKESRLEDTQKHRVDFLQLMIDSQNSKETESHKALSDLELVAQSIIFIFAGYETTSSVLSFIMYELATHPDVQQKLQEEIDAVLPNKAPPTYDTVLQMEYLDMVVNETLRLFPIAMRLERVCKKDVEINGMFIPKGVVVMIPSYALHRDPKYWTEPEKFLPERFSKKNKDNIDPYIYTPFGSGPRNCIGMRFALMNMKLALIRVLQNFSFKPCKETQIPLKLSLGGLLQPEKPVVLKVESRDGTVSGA
smiles,measurement,setting,value
CC(OC(=O)c1cc2c(ccc3ccccc32)oc1=O)c1nc2ccccc2s1 (stereo not given),IC50,[1],> 32 µM (inactive)
same,EC50,[2],> 32 µM (inactive)
same,IC50,[3],> 32 µM
same,EC50,[4],> 32 µM (inactive)
same,IC50,[5],10.5 µM (active)
same,EC50,[6],> 31.5 µM (inactive)
same,IC50,[7],> 79 µM (inactive)
Cc1c(C(=O)Nc2ccc(F)cc2)cn2c(nc3ccccc32)c1C#N,IC50,[8],41.7 µM (active)
CCOC(=O)Cn1c2ccccc2c2nc3ccccc3nc21,IC50,[8],29.6 µM (active)
same,EC50,[9],107 µM (active)
O=C(Cn1c2ccccc2c(=O)c2ccccc21)Nc1ccccc1F,AC50,[10],0.345 µM (active)
same,AC50,[11],6.04 µM (active)
O=C(NNC1=Nc2ccccc2SC1)c1ccc(Cl)cc1,IC50,[1],> 32 µM (inactive)
same,EC50,[12],8.56 µM (active)
same,EC50,[13],18.4 µM (active)
same,EC50,[2],> 32 µM (inactive)
same,IC50,[3],> 32 µM
same,EC50,[4],> 32 µM (inactive)
same,EC50,[14],11 µM (active)
same,IC50,[5],10.5 µM (active)
same,EC50,[6],> 31.5 µM (inactive)
COc1ccc(-c2cc(C(=O)Nc3cnn(Cc4ccccc4C)c3)no2)cc1OC,AC50,[15],25.1 µM (inconclusive)
same,AC50,[16],inconclusive
O=C(Nc1ccc(N2CCN(C(=O)c3ccco3)CC2)c(Cl)c1)c1cccs1,CC50,[17],> 20 µM (active)
same,CC50,[18],> 40 µM (active)
O=C(N/N=C/c1ccc(O)cc1)c1ccc(-c2csc(Nc3ccc(Cl)cc3)n2)cc1,IC50,[19],> 100 µM (inactive)
same,IC50,[20],> 100 µM (inactive)
same,IC50,[21],> 100 µM (inactive)
same,IC50,[22],24.1 µM (active)
same,IC50,[23],> 100 µM (inactive)
COc1cc(NC(=O)c2cccc(F)c2)ccc1NC(=O)c1cc2ccccc2o1,CC50,[24],> 50 µM (active)
same,IC50,[25],> 50 µM (inactive)
same,IC50,[26],6.19 µM (active)
COC(=O)Cc1c(C)c2ccc(OCc3nn[nH]n3)c(C)c2oc1=O,AC50,[10],29.6 µM (active)
same,AC50,[11],12.6 µM (active)
same,AC50,[27],21.3 µM (active)
same,AC50,[28],24.6 µM (active)
COc1ccccc1OCCOc1ccc(/C=C2/C(=N)N3OC(C)=CC3=NC2=O)cc1OC,AC50,[15],2 µM (inconclusive)
same,AC50,[29],6.31 µM (inconclusive)
same,IC50,[25],> 50 µM (inactive)
same,IC50,[26],0.212 µM (active)
CN1CCN(c2ncc3nc(-c4ccc(Cl)cc4)c(=O)n(C)c3n2)CC1,AC50,[16],inconclusive
CCOc1cc(C2C(C#N)=C(N)OC(C)=C2C(C)=O)cc(Br)c1O (stereo not given),EC50,[30],12.3 µM (inconclusive)
same,AC50,[31],> 52 µM (inactive)
same,EC50,[32],12.3 µM (active)

# Reference: ChEMBL document CHEMBL1201862, “PubChem BioAssay data set” (2004)
